Source: PubChem BioAssay (NCI)
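Tested at 5 concentrations; 48 h exposure; 96-well plates; endpoints linearly interpolated, else capped at highest concentration. Abbreviation: GI50, concentration required for 50% inhibition of growth. The concentration for full growth arrest is given as TGI.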

Experiments:
Assay in all cases: DTP human tumour cell line panel, 48 h
[1] = test system: ACHN renal
[2] = test system: HCT-15 colon
[3] = test system: HCC-2998 colon
[4] = test system: PC-3 prostate
[5] = test system: HCT-116 colon
[6] = test system: NCI-H460 lung
[7] = test system: HT29 colon
[8] = test system: UACC-257 melanoma
[9] = test system: T-47D breast
[10] = test system: HS 578T breast
[11] = test system: A498 renal
[12] = test system: NCI-H522 lung
[13] = test system: RPMI-8226 leukemia
[14] = test system: SK-MEL-2 melanoma
[15] = test system: TK-10 renal
[16] = test system: SNB-75 CNS
[17] = test system: U251 CNS
[18] = test system: HOP-92 NSCLC
[19] = test system: LOX IMVI melanoma
[20] = test system: SNB-19 CNS
[21] = test system: NCI-H226 lung
[22] = test system: SF-268 CNS
[23] = test system: SN12C renal
[24] = test system: SW-620 colon
[25] = test system: SF-539 CNS
[26] = test system: 786-0 renal
[27] = test system: BT-549 breast
[28] = test system: OVCAR-3 ovarian
[29] = test system: OVCAR-4 ovarian
[30] = test system: UO-31 renal
[31] = test system: SK-OV-3 ovarian
[32] = test system: IGROV1 ovarian
[33] = test system: MDA-MB-231 breast
[34] = test system: OVCAR-5 ovarian
[35] = test system: K-562 leukemia
[36] = test system: MCF7 breast
[37] = test system: SR leukemia
[38] = test system: MOLT-4 leukemia
[39] = test system: SK-MEL-28 melanoma
[40] = test system: KM12 colon
[41] = test system: A549 NSCLC
[42] = test system: COLO 205 colon
[43] = test system: EKVX NSCLC
[44] = test system: MDA-MB-435
[45] = test system: MALME-3M melanoma
[46] = test system: M14 melanoma
[47] = test system: SK-MEL-5 melanoma
[48] = test system: CCRF-CEM leukemia
[49] = test system: OVCAR-8 ovarian
[50] = test system: RXF 393 renal
[51] = test system: UACC-62 melanoma
[52] = test system: SF-295 CNS
[53] = test system: HL-60(TB) leukemia
[54] = test system: HOP-62 NSCLC
[55] = test system: NCI-H23 lung
[56] = test system: CAKI-1 renal
[57] = test system: DU-145 prostate

## Cc1cc(N(CCNc2ccnc3cc(Cl)ccc23)Cc2cccs2)nc(Cl)n1
[1]
  GI50: 1440 nM
  TGI: 2750 nM
[2]
  GI50: 1490 nM
  TGI: 2990 nM
[3]
  GI50: 1740 nM
  TGI: 3.4 µM
[4]
  GI50: 1690 nM
  TGI: 3.94 µM
[5]
  GI50: 526 nM
  TGI: 2 µM
[6]
  GI50: 1130 nM
  TGI: 2580 nM
[7]
  GI50: 1450 nM
  TGI: 3.1 µM
[8]
  GI50: 1840 nM
  TGI: 3.56 µM
[9]
  GI50: 1120 nM
  TGI: 2880 nM
[10]
  GI50: 2100 nM
  TGI: 4.68 µM
[11]
  GI50: 1680 nM
  TGI: 4.15 µM
[12]
  GI50: 1440 nM
  TGI: 3.55 µM
[13]
  GI50: 1970 nM
  TGI: 4.55 µM
[14]
  GI50: 1840 nM
  TGI: 3.54 µM
[15]
  GI50: 1620 nM
  TGI: 2990 nM
[16]
  GI50: 1500 nM
  TGI: 2900 nM
[17]
  GI50: 893 nM
  TGI: 2.28 µM
[18]
  GI50: 1160 nM
  TGI: 2.61 µM
[19]
  GI50: 1470 nM
  TGI: 2.89 µM
[20]
  GI50: 2110 nM
  TGI: 5.62 µM
[21]
  GI50: 1830 nM
  TGI: 3.83 µM
[22]
  GI50: 1830 nM
  TGI: 4.04 µM
[23]
  GI50: 1580 nM
  TGI: 3.19 µM
[24]
  GI50: 1400 nM
  TGI: 3 µM
[25]
  GI50: 1830 nM
  TGI: 3.29 µM
[26]
  GI50: 429 nM
  TGI: 1630 nM
[27]
  GI50: 1870 nM
  TGI: 3.94 µM
[28]
  GI50: 1430 nM
  TGI: 2830 nM
[29]
  GI50: 1390 nM
  TGI: 2940 nM
[30]
  GI50: 1300 nM
  TGI: 2.6 µM
[31]
  GI50: 1800 nM
  TGI: 3.24 µM
[32]
  GI50: 1640 nM
  TGI: 3.28 µM
[33]
  GI50: 1490 nM
  TGI: 3.06 µM
[34]
  GI50: 1640 nM
  TGI: 3.53 µM
[35]
  GI50: 1020 nM
  TGI: 3.47 µM
[36]
  GI50: 1530 nM
  TGI: 3.13 µM
[37]
  GI50: 1020 nM
  TGI: 4.02 µM
[38]
  GI50: 2480 nM
  TGI: 5.57 µM
[39]
  GI50: 1610 nM
  TGI: 3.18 µM
[40]
  GI50: 1690 nM
  TGI: 3.29 µM
[41]
  GI50: 1430 nM
  TGI: 4.5 µM
[42]
  GI50: 1720 nM
  TGI: 3.54 µM
[43]
  GI50: 2080 nM
  TGI: 7.38 µM
[44]
  GI50: 1560 nM
  TGI: 3.05 µM
[45]
  GI50: 1620 nM
  TGI: 3.17 µM
[46]
  GI50: 1540 nM
  TGI: 3.19 µM
[47]
  GI50: 1740 nM
  TGI: 3.17 µM
[48]
  GI50: 2070 nM
  TGI: 5.41 µM
[49]
  GI50: 2210 nM
  TGI: 5.33 µM
[50]
  GI50: 1450 nM
  TGI: 2920 nM
[51]
  GI50: 1690 nM
  TGI: 3.19 µM
[52]
  GI50: 1320 nM
  TGI: 2770 nM
[53]
  GI50: 1990 nM
  TGI: 3.84 µM
[54]
  GI50: 1650 nM
  TGI: 3.65 µM

## c1ccc(C(NC2CCCCC2NCCNC2CCCCC2NC(c2ccccc2)(c2ccccc2)c2ccccc2)(c2ccccc2)c2ccccc2)cc1 (configuration not stated)
[1]
  TGI: > 100000 nM
[2]
  TGI: > 100000 nM
[55]
  TGI: > 100 µM
[4]
  TGI: > 100 µM
[5]
  TGI: 53.6 µM
[6]
  TGI: > 100000 nM
[7]
  TGI: > 100 µM
[8]
  TGI: > 100 µM
[9]
  TGI: > 100000 nM
[10]
  TGI: 45.3 µM
[11]
  TGI: 65.5 µM
[12]
  TGI: 39.5 µM
[13]
  TGI: > 100 µM
[14]
  TGI: > 100 µM
[15]
  TGI: > 100000 nM
[17]
  TGI: 33.9 µM
[18]
  TGI: 33.7 µM
[19]
  TGI: 47.7 µM
[20]
  TGI: > 100 µM
[22]
  TGI: > 100 µM
[23]
  TGI: > 100 µM
[24]
  TGI: > 100 µM
[25]
  TGI: > 100 µM
[27]
  TGI: 54.1 µM
[28]
  TGI: > 100000 nM
[29]
  TGI: > 100000 nM
[30]
  TGI: 71.2 µM
[31]
  TGI: > 100 µM
[32]
  TGI: > 100 µM
[33]
  TGI: > 100 µM
[34]
  TGI: > 100 µM
[35]
  TGI: > 100 µM
[36]
  TGI: 42.1 µM
[37]
  TGI: > 100 µM
[38]
  TGI: > 100 µM
[39]
  TGI: > 100 µM
[40]
  TGI: > 100 µM
[41]
  TGI: > 100 µM
[42]
  TGI: > 100 µM
[43]
  TGI: > 100 µM
[44]
  TGI: 32.7 µM
[56]
  TGI: > 100 µM
[47]
  TGI: > 100 µM
[48]
  TGI: > 100 µM
[49]
  TGI: > 100 µM
[51]
  TGI: > 100 µM
[52]
  TGI: > 100000 nM
[54]
  TGI: > 100 µM
[57]
  TGI: > 100 µM
